Test results published in US5245034A, “Compound having vessel smooth muscle relaxation activity” (Hidaka; Kiroyoshi, priority 1988, dated 1993).

How the values were obtained:
[1] = molecular target: Calmodulin-Dependent Phosphodiesterase (Ca^2+ PDE); test: Calmodulin-Dependent Phosphodiesterase Inhibition (Ca^2+ PDE); type: biochemical, rat; details: [^3 H]-cGMP, 30° C.
Protocol: Phosphodiesterase (Ca^2+ PDE)Ca^2+ PDE was partially purified from the brain of rat by DEAE-Sepharose column chromatography.
Calmodulin was purified from the calf brain using a calmodulin inhibitor W-7 affinity column.
A reaction mixture contained 20 μl of 500 mM Tris-HCl (pH 8.0), 20 μl of 50 mM MgCl2, 20 μl of 2 mM CaCl2 (or 10 mM EGTA), 20 μl of 1 mg/ml bovine serum albumin, PDE, […] of calmodulin, test sample and distilled water to make total volume 200 μl. To the mixture was added 20 μl of 4 μM [^3 H]-cGMP (2.5 μCi/ml), the mixture was incubated at 30° C. for 15 minutes, and then heated in boiling water for 3 to 5 minutes to terminate the reaction, and cooled in ice-water bath. 20 μg of 5'-nucleotidase (Snake venum) was added to the mixture, and the mixture was again incubated at 30° C. for 10 minutes. After addition of about 2 ml of water, the sample was applied to a cation exchange resin column (Biorad AG.AG50W-X4 to adsorbe the [^3 H]-guanosine and additionally about 2 ml of washing water for the sample was added to the column. The column was washed with about 20 ml of water, and the adsorbed [^3 H]-guanosine was eluted with 3 ml of 3N NH4 OH, and the elute was directly received by a vial. After an addition of 10 ml of an emulsified scintillation solution (ACS-II, AMERSHAM) the radio activity was measured by a scintillation counter LS7500 (Beckmann). The enzyme activity in the presence of calmodulin was taken as […], and a concentration of a test compound in μM which provides a 50% inhibition was expressed as IC50.

[2] = tested on: superior mesenteric artery (contracted by potassium chloride); test: Vessel Smooth Muscle Relaxation Action (V.R.); type: cell-based, rabbit; details: Oryctolagus cuniculus; concentration relaxing KCl-contracted strain to 50%; cumulative administration; read-out: V.R. (ED50)
Source text: The specimen was suspended by loading a strain in Krebs-Henseleit solution through which an oxygen gas containing 5% carbon dioxide was bubbled. The specimen was contracted by adding potassium chloride to maintain a predetermined strain. Thereafter, a test compound was cumulatively administrated.

Structure (SMILES)	IC50 [1] [µM]	EC50 [2] [µM]
CN(C(Cc1ccc(OS(=O)(=O)c2cccc3ccccc23)cc1)CN1CCN(c2ccccc2)CC1)S(=O)(=O)c1cccc2ccccc12 (stereo not drawn) [Example 57, N-methyl-N-{1-[p-(α-naphtharenesulfonyloxy) -benzyl]-2-(4-phenylpiperazinyl)ethyl}-α-naphtharenesulfonamide]	50	0.75
COc1ccc(CC(CN2CCC(OCc3ccc(Cl)c(Cl)c3)CC2)N(C)S(=O)(=O)c2cccc3cnccc23)cc1 (stereo not shown) [Example 91, N-{2-[4-(3,4-Dichlorobenzyloxy)Piperidine]-1-(P-Methoxybenzyl)Ethyl}-N-Methyl-5-Isoquinolinesulfonamide]	10	1.1
CN(C(Cc1ccc(NS(C)(=O)=O)cc1)C(=O)N1CCN(c2ccccc2)CC1)S(=O)(=O)c1cccc2cnccc12 (stereo not shown) [Example 19, 1-[N-(5-Isoquinolinesulfonyl)-P-Methanesulfonylamino-N-Methylphenylalanyl]-4-Phenylpiperazine]	20	22
O=S(=O)(NC(Cc1ccc(OS(=O)(=O)c2cccc3cnccc23)cc1)CN1CCC(OCc2ccc(Cl)c(Cl)c2)CC1)c1cccc2cnccc12 (stereo not shown) [Example 86]	24	13
CN(C(Cc1ccc(NS(=O)(=O)c2cccc3ccccc23)cc1)C(=O)N1CCN(c2ccccc2)CC1)S(=O)(=O)c1cccc2cnccc12 (stereo not shown) [Example 20, 1-[N-(5-isoquinolinesulfonyl)-N-methyl-p-(1-naphtharenesulfonylamino)phenylalanyl]-4-phenylpiperazine]	23	1
O=S(=O)(NC(Cc1ccc(OS(=O)(=O)c2cccc3cnccc23)cc1)CN1CCN(c2ccc(F)cc2)CC1)c1cccc2cnccc12 (stereo not shown) [Example 48]	6.5	3.9

Results, then the compound that gave them:

IC50 [1] [µM]	EC50 [2] [µM]	Structure (SMILES)
10.5	0.81	CN(C(Cc1ccc(O)cc1)CN1CCN(c2ccccc2)CC1)S(=O)(=O)c1cccc2cnccc12 (stereo not shown) [Example 36, N-[1-(P-Hydroxybenzyl)-2-(4-Phenylpiperazinyl)Ethyl]-N-Methyl-5-Isoquinolinesulfonamide]
42	1.2	O=S(=O)(Nc1ncccc1NCC=Cc1ccc(Cl)cc1)c1cccc2cnccc12 [Example 147, 3-(4-Chlorocinnamylamino)-2-(5-Isoquinolinesulfonylamino)Pyridine]
9.3	3.8	CN([C@@H](Cc1ccc(O)cc1)C(=O)N1CCN(c2ccccc2)CC1)S(=O)(=O)c1cccc2cnccc12 [Example 110, 1-[N-(5-Isoquinolinesulfonyl)-N-Methyltyrosyl]-4-Phenylpiperazine]
14	4.3	O=S(=O)(NC(Cc1ccc(OCc2ccccc2)cc1)CN1CCN(c2ccccc2)CC1)c1cccc2cnccc12 (stereo not shown) [Example 88, N-{1-[(4-benzyloxy)benzyl]-2-(4-phenylpiperazinyl)ethyl}-5-isoquinolinesulfonamide]
21	17	CC(C=Cc1ccccc1[N+](=O)[O-])NCCNS(=O)(=O)c1cccc2cnccc12 (stereo not shown) [Example 158]
84	0.12	CCN(CC=Cc1ccc(Cl)cc1)CCN(CC)S(=O)(=O)c1cccc2cnccc12 [Example 192, N-Ethyl-N-[2-(4-Chloro-N-Ethylcinnamylamino)Ethyl]-5-Isoquinolinesulfonamide]
12	3.2	O=CN(CC=Cc1ccc(Cl)cc1)CCNS(=O)(=O)c1cccc2cnccc12 [Example 193, N-[2-(4-Chloro-N-Formylcinnamylamino)ethyl]-5-Isoquinolinesulfonamide]
50	2.4	COc1ccc(C=CCNCCNS(=O)(=O)c2cccc3cnccc23)cc1 [Example 178, N-[2-(4-Methoxycinnamylamino)ethyl]-5-Isoquinolinesulfonamide]
